ChEMBL document CHEMBL4177608, “Design and synthesis of benzimidazole-based Rho kinase inhibitors for the treatment of glaucoma” (Bioorg Med Chem, 2017)
In brackets after ≈: the same amount, converted by molar mass.

Assays:
[1] = Antioxidant activity assessed as DPPH free radical scavenging activity at 200 ug/ml after 30 mins by spectrophotometric analysis; assay type: functional
Rattus norvegicus [2] = species on record: Rattus norvegicus; assay: Reduction in intraocular pressure in Wistar rat model of dexamethasone-induced elevated IOP assessed as change in intraocular pressure at 1 % w/v after 0.5 hrs by tonometry (reference value: 0%); assay type: functional; parameters: scale not given: the % may be the effect or the level left
[3] = Antioxidant activity assessed as DPPH free radical scavenging activity at 100 ug/ml after 30 mins by spectrophotometric analysis; assay type: functional
Rattus norvegicus [4] = species on record: Rattus norvegicus; assay: Reduction in intraocular pressure in Wistar rat model of dexamethasone-induced elevated IOP assessed as change in intraocular pressure at 1 % w/v after 2 hrs by tonometry (reference value: 0%); assay type: functional; parameters: scale not given: the % may be the effect or the level left
Rattus norvegicus [5] = species on record: Rattus norvegicus; assay: Reduction in intraocular pressure in Wistar rat model of dexamethasone-induced elevated IOP assessed as change in intraocular pressure at 1 % w/v after 2.5 hrs by tonometry (reference value: 0%); assay type: functional; parameters: scale not given: the % may be the effect or the level left
[6] = Antioxidant activity assessed as DPPH free radical scavenging activity at 25 ug/ml after 30 mins by spectrophotometric analysis; assay type: functional
[7] = Antioxidant activity assessed as DPPH free radical scavenging activity after 30 mins by spectrophotometric analysis; assay type: functional
[8] = Antioxidant activity assessed as DPPH free radical scavenging activity at 150 ug/ml after 30 mins by spectrophotometric analysis; assay type: functional
Rattus norvegicus [9] = species on record: Rattus norvegicus; assay: Reduction in intraocular pressure in Wistar rat model of dexamethasone-induced elevated IOP assessed as change in intraocular pressure in contralateral eye at 1 % w/v after 1 hr by tonometry (reference value: 0%); assay type: ADME, organism-based; parameters: scale not given: the % may be the effect or the level left; conditions: in vivo, topical_or_ocular
[10] = Antioxidant activity assessed as DPPH free radical scavenging activity at 50 ug/ml after 30 mins by spectrophotometric analysis; assay type: functional
Rattus norvegicus [11] = species on record: Rattus norvegicus; assay: Reduction in intraocular pressure in Wistar rat model of dexamethasone-induced elevated IOP assessed as change in intraocular pressure in contralateral eye at 1 % w/v after 2.5 hrs by tonometry (reference value: 0%); assay type: ADME, organism-based; parameters: scale not given: the % may be the effect or the level left; conditions: in vivo
Rattus norvegicus [12] = species on record: Rattus norvegicus; assay: Reduction in intraocular pressure in Wistar rat model of dexamethasone-induced elevated IOP assessed as change in intraocular pressure in contralateral eye at 1 % w/v after 0.5 hrs by tonometry (reference value: 0%); assay type: ADME, organism-based; parameters: scale not given: the % may be the effect or the level left; conditions: in vivo, topical_or_ocular
Rattus norvegicus [13] = species on record: Rattus norvegicus; assay: Reduction in intraocular pressure in Wistar rat model of dexamethasone-induced elevated IOP assessed as reduction in intraocular pressure at peak effect time at 1 % w/v by tonometry; assay type: functional; parameters: scale not given: the % may be the effect or the level left
Rattus norvegicus [14] = species on record: Rattus norvegicus; assay: Reduction in intraocular pressure in Wistar rat model of dexamethasone-induced elevated IOP assessed as change in intraocular pressure in contralateral eye at 1 % w/v after 1.5 hrs by tonometry (reference value: 0%); assay type: ADME, organism-based; parameters: scale not given: the % may be the effect or the level left; conditions: in vivo
[15] = Antioxidant activity assessed as DPPH free radical scavenging activity at 5 ug/ml after 30 mins by spectrophotometric analysis; assay type: functional
Rattus norvegicus [16] = species on record: Rattus norvegicus; assay: Reduction in intraocular pressure in Wistar rat model of dexamethasone-induced elevated IOP assessed as change in intraocular pressure in contralateral eye at 1 % w/v after 2 hrs by tonometry (reference value: 0%); assay type: ADME, organism-based; parameters: scale not given: the % may be the effect or the level left; conditions: in vivo
Rattus norvegicus [17] = species on record: Rattus norvegicus; assay: Reduction in intraocular pressure in Wistar rat model of dexamethasone-induced elevated IOP assessed as onset time for reduction in intraocular pressure at 1 % w/v by tonometry; assay type: functional
Rattus norvegicus [18] = species on record: Rattus norvegicus; assay: Reduction in intraocular pressure in Wistar rat model of dexamethasone-induced elevated IOP assessed as change in intraocular pressure at 1 % w/v after 1 hr by tonometry (reference value: 0%); assay type: functional; parameters: scale not given: the % may be the effect or the level left
Rattus norvegicus [19] = species on record: Rattus norvegicus; assay: Reduction in intraocular pressure in Wistar rat model of dexamethasone-induced elevated IOP assessed as change in intraocular pressure at 1 % w/v after 1.5 hrs by tonometry (reference value: 0%); assay type: functional; parameters: scale not given: the % may be the effect or the level left
Rattus norvegicus [20] = species on record: Rattus norvegicus; assay: Reduction in intraocular pressure in Wistar rat model of dexamethasone-induced elevated IOP assessed as change in intraocular pressure in contralateral eye at 1 % w/v after 3 hrs by tonometry (reference value: 0%); assay type: ADME, organism-based; parameters: scale not given: the % may be the effect or the level left; conditions: in vivo
Rattus norvegicus [21] = species on record: Rattus norvegicus; assay: Reduction in intraocular pressure in Wistar rat model of dexamethasone-induced elevated IOP assessed as peak effect time for reduction in intraocular pressure at 1 % w/v by tonometry; assay type: functional, organism-based
Rattus norvegicus [22] = species on record: Rattus norvegicus; assay: Reduction in intraocular pressure in Wistar rat model of dexamethasone-induced elevated IOP assessed as change in intraocular pressure at 1 % w/v after 6 hrs by tonometry (reference value: 0%); assay type: functional; parameters: scale not given: the % may be the effect or the level left
Rattus norvegicus [23] = species on record: Rattus norvegicus; assay: Reduction in intraocular pressure in Wistar rat model of dexamethasone-induced elevated IOP assessed as change in intraocular pressure in contralateral eye at 1 % w/v after 6 hrs by tonometry (reference value: 0%); assay type: ADME, organism-based; parameters: scale not given: the % may be the effect or the level left; conditions: in vivo
Rattus norvegicus [24] = species on record: Rattus norvegicus; assay: Reduction in intraocular pressure in Wistar rat model of dexamethasone-induced elevated IOP assessed as change in intraocular pressure at 1 % w/v after 4 hrs by tonometry (reference value: 0%); assay type: functional; parameters: scale not given: the % may be the effect or the level left
[25] = 1-Octanol/water partition coefficient, log P of compound at 2 mg after 24 hrs by spectrophotometry based shake flask method; assay type: physicochemical
Rattus norvegicus [26] = species on record: Rattus norvegicus; assay: Reduction in intraocular pressure in Wistar rat model of dexamethasone-induced elevated IOP assessed as change in intraocular pressure at 1 % w/v after 5 hrs by tonometry (reference value: 0%); assay type: functional; parameters: scale not given: the % may be the effect or the level left
Rattus norvegicus [27] = species on record: Rattus norvegicus; assay: Reduction in intraocular pressure in Wistar rat model of dexamethasone-induced elevated IOP assessed as change in intraocular pressure at 1 % w/v after 3 hrs by tonometry (reference value: 0%); assay type: functional; parameters: scale not given: the % may be the effect or the level left
Rattus norvegicus [28] = species on record: Rattus norvegicus; assay: Reduction in intraocular pressure in Wistar rat model of dexamethasone-induced elevated IOP assessed as change in intraocular pressure in contralateral eye at 1 % w/v after 4 hrs by tonometry (reference value: 0%); assay type: ADME, organism-based; parameters: scale not given: the % may be the effect or the level left; conditions: in vivo
Rattus norvegicus [29] = species on record: Rattus norvegicus; assay: Reduction in intraocular pressure in Wistar rat model of dexamethasone-induced elevated IOP assessed as change in intraocular pressure in contralateral eye at 1 % w/v after 5 hrs by tonometry (reference value: 0%); assay type: ADME, organism-based; parameters: scale not given: the % may be the effect or the level left; conditions: in vivo

SMILES | Activity [1] | Activity (Rattus norvegicus [2]) | Activity [3] | Activity (Rattus norvegicus [4]) | Activity (Rattus norvegicus [5]) | Activity [6] | IC50 [7] | Activity [8] | Activity (Rattus norvegicus [9]) | Activity [10] | Activity (Rattus norvegicus [11]) | Activity (Rattus norvegicus [12]) | Activity (Rattus norvegicus [13]) | Activity (Rattus norvegicus [14]) | Activity [15] | Activity (Rattus norvegicus [16]) | Time (Rattus norvegicus [17]) | Activity (Rattus norvegicus [18]) | Activity (Rattus norvegicus [19]) | Activity (Rattus norvegicus [20]) | other results
O=C(CN1CCN(c2ncccn2)CC1)Nc1nc2ccccc2[nH]1 | 81.8% | 3.5% | 46.5% | 15.45% | 11.77% | 20.4% | 107.77 µg/mL (≈ 319 µM) | 68.4% | 1.85% | 31% | 2.1% | 0.95% | 50% | 2.05% | 8.77% | 3.97% | 0.5 h | 7.42% | 10.92% | 0.42% | Tmax (Rattus norvegicus [21]): 2 h; Activity (Rattus norvegicus [22]): 0.35%; Activity (Rattus norvegicus [23]): 0%; Activity (Rattus norvegicus [24]): 5.62%; logP at 24 h [25]: 1.85; Activity (Rattus norvegicus [26]): 3.15%; Activity (Rattus norvegicus [27]): 9.1%; Activity (Rattus norvegicus [28]): 0%; Activity (Rattus norvegicus [29]): 0%
COc1ccccc1N1CCN(CC(=O)Nc2nc3ccccc3[nH]2)CC1 | 64.5% | 4.2% | 43.2% | 16.5% | 11.02% | 21.3% | 132.65 µg/mL (≈ 363 µM) | 55.2% | 2.1% | 35.7% | 2.5% | 1.27% | 49.92% | 4.1% | 10.8% | 4.77% | 0.5 h | 5.37% | 9.48% | 1.7% | Tmax (Rattus norvegicus [21]): 2.5 h; Activity (Rattus norvegicus [22]): 0.9%; Activity (Rattus norvegicus [23]): 0%; Activity (Rattus norvegicus [24]): 4.53%; logP at 24 h [25]: 0.97; Activity (Rattus norvegicus [26]): 1.73%; Activity (Rattus norvegicus [27]): 7.35%; Activity (Rattus norvegicus [28]): 0%; Activity (Rattus norvegicus [29]): 0%
O=C(CN1CCN(c2ccccc2)CC1)Nc1nc2ccccc2[nH]1 | 62.1% | 2.55% | 32.2% | 11% | 13.5% | 11.5% | 165.52 µg/mL (≈ 493 µM) | 40.6% | 3.25% | 24.1% | 5.65% | 1.97% | 45.73% | 4.12% | 4.62% | 5% | 0.5 h | 4% | 7.75% | 3.6% | Tmax (Rattus norvegicus [21]): 2.5 h; Activity (Rattus norvegicus [22]): 0.27%; Activity (Rattus norvegicus [23]): 0%; Activity (Rattus norvegicus [24]): 7.77%; logP at 24 h [25]: 1.29; Activity (Rattus norvegicus [26]): 1.33%; Activity (Rattus norvegicus [27]): 12.18%; Activity (Rattus norvegicus [28]): 1.55%; Activity (Rattus norvegicus [29]): 0%
